In brackets after ≈: the same amount, converted by molar mass. Entries after “also recorded” stand apart in the source; their conditions may differ.
Columns and labels:
[1] = Murine B16 melanoma model in vivo; set-up: species or system mouse (B6D2F1); conditions: mouse, in vivo, ip; i.p. daily×5
Procedure: 1) Murine B16 Melanoma Model
(§1) For the B16 melanoma model, the following procedure was used. B6D2F1 mice receive i.p. inocula of B16 murine melanoma brei prepared from B16 tumors growing s.c. in mice (day 0). […] If dosing information for agents is not available, the maximum tolerated dose (MTD) is determined in initial dose finding experiments in non-tumored mice.
(§2) The mean survival times of all groups are calculated, and results are expressed as mean survival of treated mice/mean survival of control mice (T/C)×100%. A T/C value of 150 means that the mice in the treated group lived 50% longer than those of the control group; this is sometimes referred to as the increase in life span or ILS value.
Mice that survive for 60 days are considered long-term survivors, or cures, in the B16 model. The universally accepted cut-off for activity in this model, which has been for years by the National Cancer Institute, is T/C=125. Conventional use of B16 over the years has set the following levels of activity: T/C<125, no activity, T/C=125-150, weak activity; T/C=150-200, modest activity; T/C=200-300, high activity; T/C>300, with long term survivors; excellent, curative activity.

murine P388 leukemia = experiment: Murine P388 leukemia model in vivo; set-up: species or system mouse (B6D2F1); conditions: for Survivors: 30-day; for toxic deaths: at the high dose; for efficacy vs P388 leukemia: i.p. five day schedule
Procedure: as §1, §2
For the P388 leukemia model, the procedure followed is exactly the same as the aforementioned B16 model. The tumor inoculum is prepared by removing ascited fluid containing P388 cells from tumored B6D2F1 mice, centrifuging the cells, and then resuspending the leukemia cells in saline. Mice receive 1×10^6 P388 cells i.p. on day 0.

in vivo = conditions: mouse, in vivo, ip
From the text: (§3) For all the models, the vehicle used to deliver the analog of interest was isotonic saline.
(§4) For the MX-1 human breast tumor xenograft models, the following procedure was used. Nude mice are implanted s.c. by trocar with fragments of MX-1 mammary carcinomas harvested from s.c. growing MX-1 tumors in nude mice hosts. When tumors are approximately 5 mm×5 mm in size (usually about ten days after inoculation), the animals are pair-matched into treatment and control groups. Each group contains ten tumored mice, each of which is ear-tagged and followed individually throughout the experiment. The administration of drugs or vehicle begins the day the animals are pair-matched (day 1). The doses, route of drug administration and schedule are selected as appropriate for the study in question. If the MTD dose of an agent is not known, it is determined in an initial dosing experiment in non-tumored mice. In a typical experiment, drugs are given at their MTD and 1/2 MTD doses i.p. on a daily×5 schedule.
(§5) The experiment is usually terminated when control tumors reach a size of 2-3 g. Mice are weighed twice weekly, and tumor measurements are taken by calipers twice weekly, starting on day 1. These tumor measurements are converted to mg tumor weight by a well known formula, and from these calculated tumor weights the termination date can be determined. Upon termination, all mice are weighed, sacrificed, and their tumors excised. Tumors are weighed, and the mean tumor weight per group is calculated.
(§6) Some drugs cause tumor shrinkage in the MX-1 model. With these agents, the final weight of a given tumor is subtracted from its own weight at the start of the treatment on day 1. This difference divided by the initial tumor weight is the % shrinkage. A mean % tumor shrinkage can be calculated from data from the mice in a group that experienced MX-1 regressions. If the tumor completely disappears in a mouse, this is considered a complete regression or complete tumor shrinkage. If desired, mice with partial or total tumor regressions can be kept alive past the termination date to see whether they live to become long term, tumor-free survivors.
(§7) Note that in the following table the abbreviation SR refers to tumor shrinkage rate, while those entries followed by a superscripted `2` are tumor growth inhibition rates, not tumor shrinkage rates.

[2] = tested on: MX-1 human breast tumor xenograft; experiment: in vivo
From the text: as §3, §4, §5, §6, §7

[3] = Solubility of HAR7 in various solvents and solvent systems; format: physicochemical
Procedure: In addition to testing for water solubility, one of the analogs of the present invention, HAR7, was tested for solubility in various other solvents and solvent mixtures, to determine the system which provides the greatest solubility for the analog. The results of those solubility experiments are shown below in Table 2:
The solubility of HAR7 in various solvents and solvent systems was measured using one of two experimental methods, depending on the conditions and solvents used.
First, an evaporation method was used in which an excess quantity of HAR7 was added to the solvent of choice. The mixture was finely divided using ultrasonic vibration in order to dissolve the material thoroughly. The resulting mixture was filtered and the solution was evaporated to dryness using a rotary evaporator.
Second, a spectrophotometric method was used in which an excess quantity of HAR7 was added to the solvent of choice. The mixture was finely divided using ultrasonic vibration in order to dissolve the maximum amount of solid. The resulting suspension was filtered through a 0.45 μm nylon filter, and the clear solution was diluted in the same solvent and its concentration was measure spectrophotometrically, based upon an extinction coefficient of 17000 at 258 nm.

## CC[C@@]1(O)C(=O)OCc2c1cc1n(c2=O)Cc2c-1nc1ccccc1c2CO[C@@H]1C=C[C@H](OC(C)=O)[C@@H](COC(C)=O)O1 [HAR4, 7-[4,6-di-O-acetyl-2,3-dideoxy-α-D-erythro-hex-2-enopyranosyl]oxymethylcamptothecin]
[1]
  MTD: 20 mg/kg
Murine P388 leukemia; 10 mg/kg
  cures: two
Murine P388 leukemia; 10 mg/kg i.p. daily×5
  T/C (mean survival treated/control): 201%
  Tox Deaths: 0/10
  ΔWeight (%): -0.6%
  Survivors: 2/10
Murine P388 leukemia; 20 mg/kg
  cures: two
Murine P388 leukemia; 20 mg/kg i.p. daily×5
  T/C (mean survival treated/control): 206%
  Tox Deaths: 0/10
  ΔWeight (%): -14.0%
  Survivors: 2/10
Murine P388 leukemia
  toxic deaths: no toxic deaths occurred
Murine P388 leukemia; at the high dose (MTD)
  weight loss: 12%-16
Murine P388 leukemia; in words
  efficacy vs P388 leukemia: high, curative efficacy; also recorded: excellent activity vs. P388
In vivo
  MTD: 10 mg/kg
[2]; 10 mg/kg
  complete disappearance of tumors (animals): 2
[2]; 10 mg/kg i.p. daily×5
  Tox Deaths: 0/10
  ΔWeight (%): -10.2%
[2]; 10 mg/kg i.p. daily×5, 8/10 animals
  SR(%) (Tumor Shrinkage Rate): 77%
[2]; 10 mg/kg i.p. daily×5, partial (77%)
  Shrinkage (animals): 8/10
[2]; 10 mg/kg, 2/10 animals
  SR(%) (Tumor Shrinkage Rate): 100%
[2]; 10 mg/kg, complete (100%) shrinkage
  Shrinkage (animals): 2/10
[2]; 10 mg/kg, mean 77%
  mice with tumor shrinkage: 8
[2]; 20 mg/kg i.p. daily×5
  SR(%) (Tumor Shrinkage Rate): 99%
  Shrinkage (animals): 1/10
  Tox Deaths: 9/10
[2]; 20 mg/kg, in words
  toxicity: toxic
[2]; in words
  antitumor activity vs. MX-1: almost equivalent, outstanding activity

## CC[C@@]1(O)C(=O)OCc2c1cc1n(c2=O)Cc2c-1nc1ccccc1c2CO[C@@H]1C=C[C@H](O[C@H]2O[C@H](COC(C)=O)[C@@H](OC(C)=O)[C@H](OC(C)=O)[C@H]2OC(C)=O)[C@@H](COC(C)=O)O1 [HAR5, 7-[6-O-acetyl-4-O-(2,3,4,6-tetra-O-acetyl-α-D-glucopyranosyl)-2,3-dideoxy-α-D-erythro-hex-2-enopyranosyl]oxymethylcamptothecin]
Murine P388 leukemia; 100 mg/kg
  30-day survivors (cures): one
Murine P388 leukemia; 100 mg/kg i.p. daily×5
  T/C (mean survival treated/control): 141%
  Tox Deaths: 0/10
  ΔWeight (%): +0.7%
  Survivors: 1/10
Murine P388 leukemia; 200 mg/kg i.p. daily×5
  T/C (mean survival treated/control): 161%
  Tox Deaths: 0/10
  ΔWeight (%): -2.0%
  Survivors: 0/10
Murine P388 leukemia; at its solubility-limiting dose, in words
  weight loss: only insignificant weight loss
Murine P388 leukemia; in words
  efficacy vs P388 leukemia: less efficacious compared to the other three compounds
[2]; 100 mg/kg i.p. daily×5
  Tox Deaths: 0/10
  animals with tumor growth inhibition (Shrinkage column): 10/10
  ΔWeight (%): +7.4%
[2]; 100 mg/kg i.p. daily×5, 10/10 animals
  Tumor growth inhibition rate (footnote 2, SR column): 48%
[2]; 200 mg/kg
  mice with growth inhibition: 7
  mice with tumor shrinkage: 3
[2]; 200 mg/kg i.p. daily×5
  Shrinkage (animals): 3/10
  Tox Deaths: 0/10
  animals with tumor growth inhibition (Shrinkage column): 7/10
  ΔWeight (%): +5.3%
[2]; 200 mg/kg i.p. daily×5, 3/10 animals
  SR(%) (Tumor Shrinkage Rate): 73%
[2]; 200 mg/kg i.p. daily×5, 7/10 animals
  Tumor growth inhibition rate (footnote 2, SR column): 82%

## CC[C@@]1(O)C(=O)OCc2c1cc1n(c2=O)Cc2c-1nc1ccccc1c2CO[C@@H]1C=C[C@H](O)[C@@H](CO)O1 [HAR7, 7-[2,3-dideoxy-α-D-erythro-hex-2-enopyranosyl]-oxymethylcamptothecin]
[3]; 0.1 m citrate buffer, aqueous buffer
  solubility: 24 µg/mL (≈ 47.4 µM)
[3]; 0.2 m acetate buffer, aqueous buffer
  solubility: 23 µg/mL (≈ 45.4 µM)
[3]; 0.2 m na2hpo4 buffer, aqueous buffer
  solubility: 30 µg/mL (≈ 59.2 µM)
[3]; 0.2 m nah2po4 buffer, aqueous buffer
  solubility: 32 µg/mL (≈ 63.2 µM)
[3]; 2 m acetate buffer, aqueous buffer
  solubility: 29 µg/mL (≈ 57.3 µM)
[3]; 4:1:5 pg/ethanol/dsw, organic solvent or mixture
  solubility: 960 µg/mL (≈ 1900 µM)
[3]; 4:1:5 pg/ethanol/saline, organic solvent or mixture
  solubility: 893 µg/mL (≈ 1760 µM)
[3]; 4:1:5 pg/ethanol/water, organic solvent or mixture
  solubility: 740 µg/mL (≈ 1460 µM)
[3]; 5% ethanol/dsw, organic solvent or mixture
  solubility: 177 µg/mL (≈ 349 µM)
[3]; 5% ethanol/water, organic solvent or mixture
  solubility: 80 µg/mL (≈ 158 µM)
[3]; 10% ethanol/water, organic solvent or mixture
  solubility: 143 µg/mL (≈ 282 µM)
[3]; 20% ethanol/water, organic solvent or mixture
  solubility: 380 µg/mL (≈ 750 µM)
[3]; organic solvent or mixture, PEG 300 (Polyethylene Glycol 300)
  solubility: > 5000 µg/mL
[3]; pure ethanol, organic solvent or mixture
  solubility: 1980 µg/mL (≈ 3920 µM)
Murine P388 leukemia; 20 mg/kg i.p. daily×5
  T/C (mean survival treated/control): 192%
  Tox Deaths: 0/10
  ΔWeight (%): -1.7%
  Survivors: 0/10
Murine P388 leukemia; 40 mg/kg i.p. daily×5
  T/C (mean survival treated/control): 223%
  Tox Deaths: 0/10
  ΔWeight (%): -16.0%
  Survivors: 3/10
Murine P388 leukemia; 40 mg/kg, high dose
  30-day survivors: three
Murine P388 leukemia
  toxic deaths: no toxic deaths occurred
Murine P388 leukemia; at the high dose (MTD)
  weight loss: 12%-16
Murine P388 leukemia; in words
  efficacy vs P388 leukemia: high, curative efficacy; also recorded: excellent activity vs. P388
[2]; 20 mg/kg
  mice with tumor shrinkage: 10
[2]; 20 mg/kg i.p. daily×5
  SR(%) (Tumor Shrinkage Rate): 98%
  Shrinkage (animals): 10/10
  Tox Deaths: 0/10
  ΔWeight (%): -0.05%
[2]; 20 mg/kg, in words
  weight loss: virtually no weight loss
[2]; 40 mg/kg i.p. daily×5
  SR(%) (Tumor Shrinkage Rate): 98%
  Shrinkage (animals): 5/10
  Tox Deaths: 4/10
  ΔWeight (%): -25.0%
[2]; 40 mg/kg, in words
  toxicity: produced lethality
[2]; in words
  antitumor activity vs. MX-1: almost equivalent, outstanding activity

From patent US5932709A (University of Michigan, priority 1997, dated 1999)
